Experimental data as given in patent US20110021567A1, “PREPARATION OF LENALIDOMIDE” (DR. REDDY'S LABORATORIES LTD., priority 2008, published 2011).

Experiment: storage stability of the amorphous form (material remains amorphous)
Format: physicochemical
Conditions: five days at 0-5° C., packaged in a polyethylene bag

Nc1cccc2c1CN(C1CCC(=O)NC1=O)C2=O (stereo not shown) [Example 8, 3-(4-amino-1-oxo-1,3-dihydro-2H-isoindol-2-yl)piperidine-2,6-dione]
physical form on storage: remains amorphous
